Measurements taken from patent US20050204416A1, “Plant cells having receptor polypeptides” (priority 2004, published 2005).

Legend:
[1] = target: T1, VP16-human estrogen receptor alpha (ERa) chimeric polypeptide (Homo sapiens, UniProt P03372, G400V)
Protocol: About 50 selected lines were obtained and cultured at 27° C. on N6 media containing 5 mg/ml bialaphos, with transfer to fresh media occurring about every 2 weeks. […] After incubation for about 40 hours, callus cells were examined under a dissecting microscope at 10× to 60× magnification.

[2] = target: T1, VP16-human estrogen receptor alpha (ERa) chimeric polypeptide; experiment: Transgenic Arabidopsis T2 seedlings containing VP16ERα and ERE-GFP constructs, green fluorescence; assay type: cell-based; parameters: expressed in transfected cells; host or cells: transgenic rice callus (A1); transgenic Arabidopsis T2 seedlings (A2); Agrobacterium binary vector Bin4-EUTG-10::VPCR-ER-1#81, CaMV35S promoter

T1 sequence (P03372 with tags, fused parts or gaps G400V): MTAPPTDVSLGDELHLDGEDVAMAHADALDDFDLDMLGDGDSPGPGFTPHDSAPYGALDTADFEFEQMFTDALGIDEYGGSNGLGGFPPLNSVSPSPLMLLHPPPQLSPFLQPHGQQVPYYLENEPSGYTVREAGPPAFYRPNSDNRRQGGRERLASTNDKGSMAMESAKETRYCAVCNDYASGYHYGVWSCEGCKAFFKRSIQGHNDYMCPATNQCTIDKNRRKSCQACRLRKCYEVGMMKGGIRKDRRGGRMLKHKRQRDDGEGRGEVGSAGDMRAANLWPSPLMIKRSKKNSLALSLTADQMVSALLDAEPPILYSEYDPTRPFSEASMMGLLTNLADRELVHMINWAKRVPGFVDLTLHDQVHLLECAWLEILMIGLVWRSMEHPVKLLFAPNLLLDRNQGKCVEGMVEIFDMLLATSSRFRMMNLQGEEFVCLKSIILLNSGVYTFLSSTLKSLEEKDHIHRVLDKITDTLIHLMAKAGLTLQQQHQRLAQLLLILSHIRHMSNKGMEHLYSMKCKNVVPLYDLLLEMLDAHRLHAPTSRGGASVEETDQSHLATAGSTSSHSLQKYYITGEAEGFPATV

Q: Which “green fluorescence (GFP reporter) in the presence of the exogenous compound” value [1] does the source give for 4-hydroxytamoxifen here?
A: moderate to very bright green fluorescence

Q: What about the “green fluorescence (GFP reporter) of T2 seedlings” value [2] of the same substance?
A: moderate to strong green fluorescence
